Assay results from patent publication US5294611A, “Angiotensin II receptor blocking 2,3,6 substituted quinazolinones” (American Cyanamid Company, priority 1993, dated 1994).
Like-named read-outs stand apart in the source and are kept apart here.

Tested on: Angiotensin II (AII) vasopressor response
Assay: AII Challenge: antagonism of angiotensin II vasopressor response in conscious spontaneously hypertensive rats
Assay type: in vivo, rat (male okamoto-Aoki SHR)
Settings: for inhibition in vivo at 1 mg/kg / inhibition in vivo at 3 mg/kg / inhibition in vivo at 5 mg/kg: Rattus norvegicus; for inhibition in vivo at 1 mg/kg / inhibition in vivo at 3 mg/kg: iv; for inhibition in vivo at 1 mg/kg / Average Change: 1 mg/kg I.V.; for inhibition in vivo at 3 mg/kg / inhibition in vivo at 5 mg/kg: read-out: Inhibition; for inhibition in vivo at 5 mg/kg: po
From the text: Conscious Male okamoto-Aoki SHR, 16-20 weeks old, weighing approximately 330 g are purchased from Charles River Labs (Wilmington, Mass.). Conscious rats are restrained in a supine position with elastic tape. The area at the base of the tail is locally anesthetized by subcutaneous infiltration with 2% procaine. […] The cannula is secured, heparinized (1,000 I.U./ml), sealed and the wound is closed. The animals are placed in plastic restraining cages in an upright position. The cannula is attached to a Statham P23Db pressure transducer, and pulsatile blood pressure is recorded to 10-15 minutes with a Gould Brush recorder. […] Angiotensin II (human sequence, Sigma Chem. Co., St. Louis, Mo.) of 0.05 and 0.1 ug/kg i.v. is injected into all rats (predosing response). Then a test compound, vehicle or a known angiotensin II antagonist is administered i.v., i.p. or orally to each set of rats. […] The vasopressor response of angiotensin II is measured for the increase in systolic blood pressure in mmHg.

CCCCc1nc2ccc([C@H]3[C@@H]4C(=O)CC[C@@H]4ON3C)cc2c(=O)n1Cc1ccc(-c2ccccc2-c2nnn[nH]2)cc1 (relative stereo) [Example 48]
inhibition in vivo at 1 mg/kg (0.5 h, SHR n=2, AII 0.05 mcg/kg IV, 30 min post dose): 66%
inhibition in vivo at 1 mg/kg (0.5 h, SHR n=2, AII 0.1 mcg/kg IV, 30 min post dose): 52%
inhibition in vivo at 3 mg/kg (0.5 h, SHR n=2, 3 mg/kg I.V., AII 0.05 mcg/kg IV, 30 min post dose): 93%
inhibition in vivo at 3 mg/kg (0.5 h, SHR n=2, 3 mg/kg I.V., AII 0.1 mcg/kg IV, 30 min post dose): 94%
inhibition in vivo at 1 mg/kg (1 h, SHR n=2, AII 0.05 mcg/kg IV, 60 min post dose): 55%
inhibition in vivo at 1 mg/kg (1 h, SHR n=2, AII 0.1 mcg/kg IV, 60 min post dose): 71%
inhibition in vivo at 3 mg/kg (1 h, SHR n=2, 3 mg/kg I.V., AII 0.05 mcg/kg IV, 60 min post dose): 100%
inhibition in vivo at 3 mg/kg (1 h, SHR n=2, 3 mg/kg I.V., AII 0.1 mcg/kg IV, 60 min post dose): 86%
inhibition in vivo at 1 mg/kg (2 h, SHR n=2, AII 0.05 mcg/kg IV, 120 min post dose): 49%
inhibition in vivo at 1 mg/kg (2 h, SHR n=2, AII 0.1 mcg/kg IV, 120 min post dose): 31%
inhibition in vivo at 3 mg/kg (2 h, SHR n=2, 3 mg/kg I.V., AII 0.05 mcg/kg IV, 120 min post dose): 89%
inhibition in vivo at 3 mg/kg (2 h): 82%
inhibition in vivo at 1 mg/kg (3 h, SHR n=2, AII 0.05 mcg/kg IV, 180 min post dose): 38%
inhibition in vivo at 1 mg/kg (3 h, SHR n=2, AII 0.1 mcg/kg IV, 180 min post dose): 38%
inhibition in vivo at 3 mg/kg (3 h, SHR n=2, 3 mg/kg I.V., AII 0.05 mcg/kg IV, 180 min post dose): 60%
inhibition in vivo at 3 mg/kg (3 h, SHR n=2, 3 mg/kg I.V., AII 0.1 mcg/kg IV, 180 min post dose): 47%
inhibition in vivo at 1 mg/kg (4 h, SHR n=2, AII 0.05 mcg/kg IV, 240 min post dose): 26%
inhibition in vivo at 1 mg/kg (4 h, SHR n=2, AII 0.1 mcg/kg IV, 240 min post dose): 32%
inhibition in vivo at 3 mg/kg (4 h, SHR n=2, 3 mg/kg I.V., AII 0.05 mcg/kg IV, 240 min post dose): 60%
inhibition in vivo at 3 mg/kg (4 h, SHR n=2, 3 mg/kg I.V., AII 0.1 mcg/kg IV, 240 min post dose): 47%
inhibition in vivo at 1 mg/kg (5 h, SHR n=2, AII 0.05 mcg/kg IV, 300 min post dose): 18%
inhibition in vivo at 1 mg/kg (5 h, SHR n=2, AII 0.1 mcg/kg IV, 300 min post dose): 30%
inhibition in vivo at 3 mg/kg (5 h, SHR n=2, 3 mg/kg I.V., AII 0.05 mcg/kg IV, 300 min post dose): 47%
inhibition in vivo at 3 mg/kg (5 h, SHR n=2, 3 mg/kg I.V., AII 0.1 mcg/kg IV, 300 min post dose): 35%
inhibition in vivo at 1 mg/kg ([…], SHR n=2, AII 0.05 mcg/kg IV, 90 min post dose): 40%
inhibition in vivo at 1 mg/kg ([…], SHR n=2, AII 0.1 mcg/kg IV, 90 min post dose): 52%
inhibition in vivo at 3 mg/kg ([…], SHR n=2, 3 mg/kg I.V., AII 0.05 mcg/kg IV, 90 min post dose): 87%
inhibition in vivo at 3 mg/kg ([…], SHR n=2, 3 mg/kg I.V., AII 0.1 mcg/kg IV, 90 min post dose): 76%
inhibition in vivo at 5 mg/kg (0.5 h, SHR n=2, 5 mg/kg P.O., AII 0.05 mcg/kg IV, 30 min post dose): 76%
inhibition in vivo at 5 mg/kg (0.5 h, SHR n=2, 5 mg/kg P.O., AII 0.1 mcg/kg IV, 30 min post dose): 66%
inhibition in vivo at 5 mg/kg (1 h, SHR n=2, 5 mg/kg P.O., AII 0.05 mcg/kg IV, 60 min post dose): 76%
inhibition in vivo at 5 mg/kg (1 h, SHR n=2, 5 mg/kg P.O., AII 0.1 mcg/kg IV, 60 min post dose): 74%
inhibition in vivo at 5 mg/kg (2 h, SHR n=2, 5 mg/kg P.O., AII 0.05 mcg/kg IV, 120 min post dose): 90%
inhibition in vivo at 5 mg/kg (2 h, SHR n=2, 5 mg/kg P.O., AII 0.1 mcg/kg IV, 120 min post dose): 89%
inhibition in vivo at 5 mg/kg (3 h, SHR n=2, 5 mg/kg P.O., AII 0.1 mcg/kg IV, 180 min post dose): 74%
inhibition in vivo at 5 mg/kg (3 h): 82%
inhibition in vivo at 5 mg/kg (4 h, SHR n=2, 5 mg/kg P.O., AII 0.05 mcg/kg IV, 240 min post dose): 94%
inhibition in vivo at 5 mg/kg (4 h, SHR n=2, 5 mg/kg P.O., AII 0.1 mcg/kg IV, 240 min post dose): 79%
inhibition in vivo at 5 mg/kg (5 h, SHR n=2, 5 mg/kg P.O., AII 0.05 mcg/kg IV, 300 min post dose): 93%
inhibition in vivo at 5 mg/kg (5 h, SHR n=2, 5 mg/kg P.O., AII 0.1 mcg/kg IV, 300 min post dose): 79%
inhibition in vivo at 5 mg/kg ([…], SHR n=2, 5 mg/kg P.O., AII 0.05 mcg/kg IV, 90 min post dose): 79%
inhibition in vivo at 5 mg/kg ([…], SHR n=2, 5 mg/kg P.O., AII 0.1 mcg/kg IV, 90 min post dose): 85%
Average Change (SHR n=2, AII 0.05 mcg/kg IV, 30 min post dose): 15 mmHg
Average Change (SHR n=2, AII 0.05 mcg/kg IV, 60 min post dose): 20 mmHg
Average Change (SHR n=2, AII 0.05 mcg/kg IV, 90 min post dose): 26.5 mmHg
Average Change (SHR n=2, AII 0.05 mcg/kg IV, 120 min post dose): 22.5 mmHg
Average Change (SHR n=2, AII 0.05 mcg/kg IV, 180 min post dose): 27.5 mmHg
